In patent US20150265661A1, “PREBIOTIC EFFECT OF SIALYLLACTOSE” (Trustees of Boston College, priority 2012, published 2015):

Experiments:
[1] = tested on: Bifidobacteria sp. (ten strains of Table 2); assay: Growth (OD 600 nm) and pH of bacterial strains in ZMB1 with oligosaccharide as sole carbon source; format: cell-based, Bifidobacterium longum, Bifidobacterium infantis; settings: for utilization as a primary carbon source by ten different Bifidobacteria: concentrations indicated in FIGS. 4 and 5; for numbers of bifidobacteria: in vitro fermentation, vs control; for prebiotic effects on Bifidobacteria strains: sialyllactose alone, FIG. 5
[2] = tested on: Escherichia coli W3110; assay: as above; format: cell-based; settings: 48 h, FIG. 4
[3] = tested on: Clostridium perfringens ATCC 13124; format: cell-based; settings: 48 h, sole carbon source, FIG. 4

Molecule: CC(=O)N[C@H]1[C@H]([C@H](O)[C@H](O)CO)O[C@@](O[C@H]2[C@@H](O)[C@@H](CO)O[C@@H](O[C@H]3[C@H](O)[C@@H](O)C(O)O[C@@H]3CO)[C@@H]2O)(C(=O)O)C[C@@H]1O (some centres unmarked) [3′-SL, 3′-sialyllactose]
- utilization as a primary carbon source by ten different Bifidobacteria [1]: could utilize
- numbers of bifidobacteria [1]: significantly higher
- prebiotic effects on Bifidobacteria strains [1]: showed prebiotic effects on some Bifidobacteria strains

Molecule: CC(=O)N[C@H]1[C@H]([C@H](O)[C@H](O)CO)O[C@@](OC[C@H]2O[C@@H](O[C@H]3[C@H](O)[C@@H](O)[C@H](O)O[C@@H]3CO)[C@H](O)[C@@H](O)[C@H]2O)(C(=O)O)C[C@@H]1O [6′-SL, 6′-sialyllactose]
- utilization as a primary carbon source by ten different Bifidobacteria [1]: could utilize
- numbers of bifidobacteria [1]: significantly higher
- prebiotic effects on Bifidobacteria strains [1]: showed prebiotic effects on some Bifidobacteria strains

Molecule: lactodifucotetraose [LDFT]
- growth of the Bifidobacteria sp. ([1]; 48 h, sole carbon source (2'-FL 2 g/L, 3-FL 2 g/L, LDFT 1 g/L), vs control without substrate): significantly increase
- pH in the culture of Bifidobacteria ([1]; 48 h, sole carbon source, vs control without substrate): decrease the pH
- utilization as a primary carbon source by ten different Bifidobacteria [1]: could utilize
- numbers of bifidobacteria [1]: significantly higher
- growth of E. coli [2]: no significant increase
- pH in the culture of E. coli [2]: no significant increase on its growth and decrease in pH
- growth of C. perfringens [3]: no significant increase
- pH in the culture of C. perfringens [3]: no significant increase on its growth and decrease in pH
